# Results published in patent US20110212434A1, “NOVEL HIV-BASED RECOMBINANT VIRAL CLONES AND USE THEREOF IN ANALYTICAL METHODS” (priority 2004, published 2011).
# System: virus with the mutations M41L, K07R, T215F, K219Q
# Test: Determination system for phenotypic resistances to antiretroviral drugs (renilla activity, recombinant viral clones)
# Assay type: cell-based, HIV
# Settings: K219Q versus wild type virus, FIG. 2b
# Protocol: It can be schematically seen in FIGS. 1a and 1b how the viral particles are produced in culture supernatants during the 48 hours following transfection of the recombinat virus carrying viral sequences amplified from patients's plasma in 293T cells. The 293T cell line was obtained from the Deposit of the ATCC. The progeny of recombinant viruses are collected 48 hours after transfection in and used to infect the SSPA-B7 clone as target. This cellular clone was obtained by the applicant from the MT-2 cell line by means of transfection of an expression vector of the gene CCR5 provided with a resistance marker for Genetycin. Expression of both major viral coreceptors (CCR5 as a transgene and CXCR4 naturally) allows the infection with viral carrying different envelopes that use CCR5, CXCR4 receptors or both. […] The capacity of the viruses to complete a replication cycle is quantified by measuring the luciferase activity in the target cells. When phenotypic resistance to protease inhibitors is analyzed, the drug should be added to the producer cell (293-T) because viral morphogenesis driven by the protease is generated in this step of the viral cycle. In contrast, phenotypic resistance towards inhibitors of reverse transcriptase and of entry is measured by adding the drugs to the infected cells because such processes (entry and retrotranscription) take place in the target cell. […]
compound,measurement,value
Cc1cn([C@H]2C[C@H](N=[N+]=[N-])[C@@H](CO)O2)c(=O)[nH]c1=O [AZT],Fold (AZT resistance),36
